From patent US10426850B2, “Collagen mimetic peptides for targeting collagen strands for in vitro and in vivo imaging and therapeutic use” (The Johns Hopkins University, priority 2011, dated 2019)
Non-standard residues stand in square brackets, D forms with d. No end group written: not given here. *: point of attachment. IRDye800CW = CC1(C)C(/C=C/C2=C(Oc3ccc(S(=O)(=O)O)cc3)C(=C/C=C3/N(CCCCS(=O)(=O)O)c4ccc(S(=O)(=O)O)cc4C3(C)C)/CCC2)=[N+](CCCCCC(=O)*)c2ccc(S(=O)(=O)[O-])cc21; Hyp = O=C(O)[C@@H]1C[C@@H](O)CN1; CF = 5(6)-carboxyfluorescein; Ahx = NCCCCCC(=O)O

Key:
[1] = Circular dichroism spectra and thermal melting of CMPs; type: physicochemical; details: for Tm (CD melting curve, triple helix): after UV exposure (photo-decaged), heating rate 60° C./hr, Tm about 10° C. higher than equilibrium Tm
Experimental: Circular dichroism spectroscopy. CD spectra were collected on JASCO 715 spectrophotometer equipped with a JASCO PTC-348 WI temperature controller and quartz cells (0.1 mm path length). CMP solutions (320 μL, 150 μM in 1×PBS) were stored at 4° C. for at least 24 hours before measurement. For photo-decaging, samples were exposed to 365 nm UV light for at least 30 minutes before the 4° C. incubation. The thermal melting studies were performed by measuring the ellipticity at 225 nm with 60° C./hr heating rate. Raw CD signal was normalized to mean residue ellipticity based on the peptide's length and concentration (Biopolymers 95:94-104 (2011)). Melting temperatures (Tm) were determined by fitting the mean residue ellipticity to a two-state model (Org Lett 8:4735-4738 (2006)). To measure the refolding kinetics, CMP solution was thermally denatured at 75° C. for 10 minutes in a cuvette and rapidly quenched to 25° C. in an ice-water bath, after which the CD signal at 225 nm was observed over time at 25° C. The CD spectra of intact and MMP-1 cleaved type I collagen (FIG. 12) was measured in 90 μg/mL protein solutions in 20 mM acetic acid buffer at 22° C. The 37° C. thermal stability profile (FIG. 2E, inset) was generated by monitoring the ellipticity at 222 nm immediately after transferring the cuvette to a temperature controlled cuvette holder pre-set to 37° C. The Tm values reported in this study are approximately 10° C. higher than the equilibrium Tm due to high heating rate (60° C./hr) (Biopolymers 73:682-688 (2004)).
Synthesis of fluorescently labeled collagen mimetic peptides. Non-caged CMPs were synthesized using Fmoc-mediated solid-phase chemistry by manual or automated synthesis as described previously.2,4 The caged NB(GPO)9 (SEQ ID NO: 12) was prepared by introducing Fmoc(N-o-nitrobenzyl)Gly-OH (synthesized according to Tatsu et al. 2,5) in the middle of the standard solid-phase peptide synthesis. The Hyp residue following the NBGly was conjugated using 9 molar equiv of Fmoc-Hyp(tBu)-OH, 8.8 molar equiv of PyBroP, and 20 molar equiv of DIPEA for over 24 hr to overcome the low reactivity caused by the steric hindrance of the NB cage group. The remaining sequence including the GGG spacer was completed by HBTU chemistry, followed by on-resin labeling with 6 molar equivalent of CF or TAMRA activated by 6 molar equivalent of PyAOP for over 24 hr. The full length fluorescent CMPs were cleaved from resin by treating the resin with TFA/TIS/H2O (95:2.5:2.5) for 3 hr and the cleaved peptide was purified by reverse phase HPLC on a Vydac C18 column using a linear gradient mixture of water (0.1% TFA) and acetonitrile (0.1% TFA) (5-45% acetonitrile gradient in 40 min). The purified peptides were analyzed by MALDI-TOF MS (FIG. 27): m/z calculated 2975.1 [M+Na+] for CF(GPO)9 (SEQ ID NO: 10), found 2975.0 [M+Na+]; m/z calculated 2975.1 [M+Na+] for ^SG9P9O9 (SEQ ID NO: 5), found 2973.5 [M+Na+]; m/z calculated 3110.2 [M+Na+] for CF^NB(GPO)9 (SEQ ID NO: 4), found 3109.4 [M+Na+]; m/z calculated 2975.1 [M+Na+] for CF(GPO)9 (SEQ ID NO: 10) [CF^NB(GPO)9 (SEQ ID NO: 4) after UV decaging], found 2974.1 [M+Na+]; m/z calculated 3142.3 [M+H+] for TAMRA-NB(GPO)9 (SEQ ID NO: 12), found 3141.4 [M+H+]; m/z calculated 3007.2 [M+H+] for TAMRA-(GPO)9 (SEQ ID NO: 15), [TAMRA-NB(GPO)9 (SEQ ID NO: 12) after decaging], found 3006.3 [M+H+]. CD spectra and CD melting curves of the labeled CMPs were acquired in PBS solutions using a JASCO 715 CD spectrophotometer. The solutions were incubated for at least 24 hours at 4° C. prior to CD experiment to ensure folding (FIG. 28).

[2] = test system: PC-3 prostate tumor xenografts (PC3-PIP, PC3-flu); test: In vivo tumor targeting, NIRF imaging, prostate xenografts; design: species or system mouse; details: 3.7 nmol, tail vein, UV-activated, imaging over four days (to 96 hours PI)
[3] = test system: Panc02 and Panc198 tumors; test: In vivo tumor targeting, NIRF imaging, pancreatic xenografts; design: species or system mouse; details: approximately 4 nmol, tail vein; 96 hr post injection
Experimental: Murine Panc02 and human Panc198 cells were acquired from the ATCC (Rockville, Md.) and cultured in RPMI1640 supplemented with 10% FBS, 10 μg/mL of streptomycin and 10 I.U./mL of penicillin at 37° C. in 5% CO2 and humidified air until 80-95% confluence. The cells were then trypsinized and formulated at either 2×10^6 cells/100 μL (Panc198) or 1×10^6 cells/100 μL (Panc02) followed by subcutaneous inoculation into 12-week-old female athymic nu/nu mice (NCI). Panc198 and Panc02 cells were inoculated subcutaneously behind the left and right shoulder, respectively. When the Panc02 xenograft reached 4-6 mm in diameter (˜2 weeks after inoculation), each mouse was intravenously administered with solution containing 4 nmol of photo-activated IR-Ahx-(GPO)9 (SEQ ID NO: 9) or IR-Ahx-^SG9P9O9 (SEQ ID NO: 8) and 1 nmol of cysteine, followed by MMPsense injection and NIRF imaging as described.

[4] = test system: collagen remodeling in bones and cartilages; details: 4 nmol intravenous, photo-decaged, four days after injection
[5] = biological target: T1, type I collagen films (fibrillar collagen) (Rattus norvegicus, UniProt P02454+P02466); test: Photo-triggered CMP binding assay on collagen films; details: 4° C., overnight incubation
T1 construct: Collagen solution (200 μL, 3.71 mg/mL, type I rat tail, BD Science); purchased BD Science; host or cells: rat tail
Experimental: (§1) Collagen/gelatin binding assays. Collagen solution (200 μL, 3.71 mg/mL, type I rat tail, BD Science) in 0.02 N acetic acid was added to each well of a 96-well black/clear-bottom plate (Costar) and air-dried. To make gelatin films, the same collagen solution was denatured at 70° C. for 15 minutes before applying to the well. The dried films were neutralized and washed with 1×PBS buffer (pH 7.4) and deionized water. PBS solution of carboxyfluorescein-labeled caged CMP (40 μL, 50 μM, unless indicated otherwise) pre-equilibrated at 4° C. was added onto each reconstituted collagen or gelatin film and exposed to 365 nm UV light (10 mW/cm^2, from mercury arc lamp) for 11 minutes on ice. Wells for the UV-negative control groups were covered with aluminum foil to block UV exposure. After incubation at 4° C. for over 3 hours (unless indicated otherwise), the unbound materials were removed by rinsing with PBS buffer and deionized water. The films were allowed to dry in dark, after which the fluorescence (ex: 489 nm, em: 533 nm) was measured with a SpectraMax Gemini XPS microplate reader (Molecular Devices). Each binding experiment was done in triplicate.

[6] = biological target: T2, thermally-denatured collagen (gelatin) films (Rattus norvegicus, UniProt P02454+P02466); test: Photo-triggered CMP binding assay on gelatin films; details: after photo-cleavage, type I gelatin films
T2 construct: To make gelatin films, the same collagen solution was denatured at 70° C. for 15 minutes; purchased BD Science; host or cells: rat tail
Experimental: as §1

[7] = biological target: T3, MMP-1 cleaved type I collagen (3/4 and 1/4 fragments) (rat, UniProt P02454 152-1207; P02466 86-1125); test: fluorescent staining of SDS-PAGE gel
T3 construct: Tested kept at 22 C, after 1 min at 37 C (spontaneously denatured), and as denatured bands in SDS-PAGE; also called MMP-1 digested collagens; MMP-Col

[8] = biological target: T4, mouse type IV collagen (denatured, reduced, in SDS-PAGE) (mouse, UniProt P02463 28-1669; P08122 26-1707); test: fluorescent staining of SDS-PAGE gel
T4 construct: also called collagen type IV
T4 sequence (P02463 28-1669, chain 1 of 2): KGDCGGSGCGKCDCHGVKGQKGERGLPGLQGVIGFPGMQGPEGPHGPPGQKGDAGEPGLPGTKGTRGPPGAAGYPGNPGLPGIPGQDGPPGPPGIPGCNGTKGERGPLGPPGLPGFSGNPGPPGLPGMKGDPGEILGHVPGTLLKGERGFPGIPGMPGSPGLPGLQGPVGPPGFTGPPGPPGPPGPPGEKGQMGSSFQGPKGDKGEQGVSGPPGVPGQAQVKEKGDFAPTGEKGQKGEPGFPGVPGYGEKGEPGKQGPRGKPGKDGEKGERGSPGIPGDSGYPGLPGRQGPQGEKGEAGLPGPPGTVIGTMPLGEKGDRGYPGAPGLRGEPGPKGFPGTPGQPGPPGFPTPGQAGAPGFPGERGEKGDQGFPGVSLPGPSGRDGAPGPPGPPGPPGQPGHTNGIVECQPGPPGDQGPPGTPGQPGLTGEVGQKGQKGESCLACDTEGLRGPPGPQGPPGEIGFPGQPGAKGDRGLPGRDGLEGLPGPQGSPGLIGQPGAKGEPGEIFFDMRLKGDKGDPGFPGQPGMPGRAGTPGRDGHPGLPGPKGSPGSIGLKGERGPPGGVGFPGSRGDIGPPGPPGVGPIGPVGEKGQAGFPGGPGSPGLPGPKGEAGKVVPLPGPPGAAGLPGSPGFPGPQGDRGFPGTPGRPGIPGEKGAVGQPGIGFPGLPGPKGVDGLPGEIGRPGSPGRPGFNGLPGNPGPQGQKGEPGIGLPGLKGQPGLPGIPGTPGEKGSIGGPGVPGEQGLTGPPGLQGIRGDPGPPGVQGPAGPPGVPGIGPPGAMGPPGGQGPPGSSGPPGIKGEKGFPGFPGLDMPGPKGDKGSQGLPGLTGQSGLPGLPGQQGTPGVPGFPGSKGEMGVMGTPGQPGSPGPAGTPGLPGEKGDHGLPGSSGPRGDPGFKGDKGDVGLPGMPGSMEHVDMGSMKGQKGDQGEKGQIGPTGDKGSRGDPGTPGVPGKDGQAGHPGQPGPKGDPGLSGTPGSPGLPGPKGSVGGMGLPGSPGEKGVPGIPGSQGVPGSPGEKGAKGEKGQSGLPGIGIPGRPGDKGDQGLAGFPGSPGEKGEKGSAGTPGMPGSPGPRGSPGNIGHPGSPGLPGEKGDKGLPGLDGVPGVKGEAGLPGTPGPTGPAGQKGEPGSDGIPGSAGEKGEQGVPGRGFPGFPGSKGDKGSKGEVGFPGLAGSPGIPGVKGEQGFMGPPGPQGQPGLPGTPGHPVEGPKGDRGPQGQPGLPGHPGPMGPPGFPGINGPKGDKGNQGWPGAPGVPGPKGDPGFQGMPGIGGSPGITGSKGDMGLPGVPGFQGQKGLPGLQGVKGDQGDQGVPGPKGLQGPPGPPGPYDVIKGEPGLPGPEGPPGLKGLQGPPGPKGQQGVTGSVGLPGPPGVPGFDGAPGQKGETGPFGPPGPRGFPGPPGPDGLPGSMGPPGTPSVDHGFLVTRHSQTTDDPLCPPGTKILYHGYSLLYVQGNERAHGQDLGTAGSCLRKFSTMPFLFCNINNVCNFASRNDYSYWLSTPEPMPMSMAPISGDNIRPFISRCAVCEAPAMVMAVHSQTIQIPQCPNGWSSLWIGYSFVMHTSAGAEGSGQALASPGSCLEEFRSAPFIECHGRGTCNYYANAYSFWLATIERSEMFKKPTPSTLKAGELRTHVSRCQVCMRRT
T4 sequence (P08122 26-1707, chain 2 of 2): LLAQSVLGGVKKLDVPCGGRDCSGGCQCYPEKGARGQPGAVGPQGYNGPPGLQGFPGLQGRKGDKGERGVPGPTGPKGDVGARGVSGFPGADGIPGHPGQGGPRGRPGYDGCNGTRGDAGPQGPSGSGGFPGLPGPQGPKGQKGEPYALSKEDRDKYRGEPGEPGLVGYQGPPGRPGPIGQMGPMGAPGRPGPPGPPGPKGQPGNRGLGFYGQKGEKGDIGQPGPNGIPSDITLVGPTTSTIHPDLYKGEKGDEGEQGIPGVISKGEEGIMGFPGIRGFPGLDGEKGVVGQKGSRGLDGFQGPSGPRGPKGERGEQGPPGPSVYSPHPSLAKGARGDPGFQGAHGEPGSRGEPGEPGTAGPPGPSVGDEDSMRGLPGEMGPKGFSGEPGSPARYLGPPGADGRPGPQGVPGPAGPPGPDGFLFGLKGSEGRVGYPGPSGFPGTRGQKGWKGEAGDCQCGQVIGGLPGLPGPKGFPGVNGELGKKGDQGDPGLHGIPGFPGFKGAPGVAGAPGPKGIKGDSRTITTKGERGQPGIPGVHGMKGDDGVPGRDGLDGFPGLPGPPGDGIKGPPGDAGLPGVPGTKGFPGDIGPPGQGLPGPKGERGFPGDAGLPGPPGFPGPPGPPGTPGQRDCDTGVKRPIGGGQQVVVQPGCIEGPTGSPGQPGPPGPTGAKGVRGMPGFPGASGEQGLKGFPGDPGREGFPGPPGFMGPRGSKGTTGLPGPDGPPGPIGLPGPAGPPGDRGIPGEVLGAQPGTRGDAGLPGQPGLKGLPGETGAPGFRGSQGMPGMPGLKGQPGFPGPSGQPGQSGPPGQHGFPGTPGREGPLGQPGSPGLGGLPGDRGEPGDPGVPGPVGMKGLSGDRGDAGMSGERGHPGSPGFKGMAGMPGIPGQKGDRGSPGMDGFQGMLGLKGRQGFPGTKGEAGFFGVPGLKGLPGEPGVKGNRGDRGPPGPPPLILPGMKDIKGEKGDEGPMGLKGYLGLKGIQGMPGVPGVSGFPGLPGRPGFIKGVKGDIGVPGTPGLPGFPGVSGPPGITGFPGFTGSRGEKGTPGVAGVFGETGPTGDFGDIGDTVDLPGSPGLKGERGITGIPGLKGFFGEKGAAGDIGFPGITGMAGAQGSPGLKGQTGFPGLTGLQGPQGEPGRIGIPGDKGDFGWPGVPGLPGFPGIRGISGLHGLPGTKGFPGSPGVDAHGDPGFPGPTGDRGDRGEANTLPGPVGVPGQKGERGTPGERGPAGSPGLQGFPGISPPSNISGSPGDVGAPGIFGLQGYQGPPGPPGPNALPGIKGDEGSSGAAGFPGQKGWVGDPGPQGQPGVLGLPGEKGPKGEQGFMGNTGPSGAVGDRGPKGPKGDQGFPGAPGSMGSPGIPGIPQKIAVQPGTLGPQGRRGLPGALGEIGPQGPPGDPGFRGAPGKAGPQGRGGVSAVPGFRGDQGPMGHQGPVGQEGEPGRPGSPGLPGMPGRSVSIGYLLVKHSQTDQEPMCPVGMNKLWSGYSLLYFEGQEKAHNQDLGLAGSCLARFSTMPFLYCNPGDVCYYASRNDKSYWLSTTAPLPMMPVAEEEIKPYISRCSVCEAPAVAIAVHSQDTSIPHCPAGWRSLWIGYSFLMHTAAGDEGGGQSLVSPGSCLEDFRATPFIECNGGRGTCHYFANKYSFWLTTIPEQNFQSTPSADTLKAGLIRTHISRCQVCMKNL

## IR-Ahx-^SG9P9O9: IRDye-800CW labeled sequence-scrambled control peptide with Ahx spacer, SEQ ID NO: 8 ({IRDye800CW-Ahx}-PGPGPGPPPPGPGPPPGPPPGGPPPPG; numbers in words are those of the source; also: 9 O residues (G9P9O9), places not given here)
[1]; sequence-scrambled peptide
  triple helical folding capacity (CD melting): no triple helix forming capacity
[2]
  tumor accumulation (in vivo NIRF imaging): minimal accumulation at the tumor sites
[2]; listed as IR-Ahx-SG9P9O9
  tumor accumulation (in vivo NIRF imaging): cleared out
[3]
  tumor accumulation (NIRF imaging): no peptide accumulation

## IR′-Ahx-^SG9P9O9: IRDye 680RD labeled sequence-scrambled peptide, SEQ ID NO: 8 ({IRDye 680RD-Ahx}-PGPGPGPPPPGPGPPPGPPPGGPPPPG; not fully specified; numbers in words are those of the source; also: 9 O residues (G9P9O9), places not given here)
[4]
  skeletal uptake (whole body NIRF): signal only from the digestive system

## CF-GGG-(GPP)4^NBGPP(GPP)4 [CF^NB(GPP)9]
[1]
  Tm (CD melting curve, triple helix): 51 °C

## CF-GGG-(G^DP^DP)4^NBG^DP^DP(G^DP^DP)4 [CF^NB(G^DP^DP)9]
[1]
  Tm (CD melting curve, triple helix): 51 °C
[5]
  UV triggered collagen binding as fraction of that of CF^NB(GPP)9: about one fourth
[6]
  level of gelatin binding relative to CF^NB(GPP)9: an order of magnitude lower

B1: CF^SG9P9O9, sequence-scrambled control peptide, CF-GGG-PGOGPGPOPOGOGOPPGOOPGGOOPPG (peptide)
peptide: {CF}-GGGPG[Hyp]GPGP[Hyp]P[Hyp]G[Hyp]G[Hyp]PPG[Hyp][Hyp]PGG[Hyp][Hyp]PPG
notes: Cannot fold into a triple helix; also called ^9G9P9O9; ^CG9P9O9
[7]
  binding result: no binding (tested: 6 µM)
[8]
  binding result: no binding (tested: 6 µM)
